Legend:
BACE1, PSEN1, Adam10 = assay: Western blot and PCR analysis of APP processing enzymes in 9 month-old mice; format: in vivo; details: data not shown
Experimental: Brain tissue was homogenized in 8M urea. Total protein concentration was determined using the Bradford assay and BSA as standard. Proteins were separated on 8 or 15% SDS page gels, transferred to PVDF membrane and incubated with antibodies: anti-APP^645-694 G369 (1:4000), anti α-tubulin (T-9026, Sigma) (1:5000). Signals were detected using the ECL Kit (Amersham), band intensities calculated using Image J software (ImageJ 1.31V), and normalized to α-tubulin values.
(§1) Total cytoplasmic RNA from tissues was isolated using TRIZOL reagent, (Invitrogen/GIBCO); aliquots were converted to cDNA using random hexamer primers, and mRNA levels were estimated by quantitative touchdown PCR (QPCR). PCR conditions were 35 cycles of denaturation at 94° C. for 10 s; annealing at 58-64° C. for 15 s; and extension at 72° C. for 20 s on a Corbett Rotorgene Real-Time PCR unit (Corbett, Australia). PCR was done using Taq DNA Polymerase (Invitrogen), and contained SYBR Green (SybrGreen1 10,000× concentrate, diluted 1:10,000; Molecular Probes, Eugene, Oreg.). Relative mRNA concentrations were calculated from the takeoff point of reactions using manufacturer's software, and were normalized to α-tubulin, β-actin, and glyceraldehyde-3-phosphate dehydrogenase (GDH). Melting curve analysis and agarose gel electrophoresis ensured production of single and corrected size products. The primers used were: […]

EAE mice = assay: NA depletion with DSP4 in EAE (MOG35-55 immunized mice); format: in vivo; details: DSP4 50 mg/kg i.p. twice one week apart, MOG immunization 2 weeks later; versus vehicle
neprilysin (NEP) = assay: QPCR of neprilysin mRNA in brain samples; format: in vivo, mice; details: cortical samples, versus vehicle
Experimental: as §1
Comparative real time RT-PCR (or quantitative PCR, QPCR) was used to measure mRNA levels of the Aβ degrading enzymes neprilysin (Nep) and insulin degrading enzyme (IDE) in brain samples from vehicle and DSP4 treated mice (FIG. 4A). […] To assess the effects of dose, mouse neuronal N2A cells were incubated with increasing does of NA for 24 hr after which NEP activity was measured (FIG. 4D, data is mean±sd and is from n=3 samples). […]

NOS2 = NOS2 and NeuN staining in wild type mice treated with DSP4 and injected with Aβ1-42; format: in vivo; details: Aβ1-42 injected
Experimental: Genotyping was performed to confirm identity of NOS2 null and wild type littermates (FIG. 7A), and wild type mice treated with DSP4, and wild type mice treated with DSP4 and injected with oligomeric Aβ1-42 (FIG. 7B). One day later brain sections were analyzed for NOS2 (green) and NeuN (red) staining White arrows indicate neurons labeled with both antibodies.
Wild type and NOS2 null mice were treated with two i.p. injections of DSP4 as described below, and injected with oligomeric Aβ1-42 4 weeks after the second DSP4 injection. One day later brain sections were prepared from the mice, sections from wild type (FIG. 8A) and NOS2 null mice (FIG. 8B) were stained for SMI-32.
Slides were washed for 5 min. with PBS and blocked with 5% normal donkey serum in PBS at room temperature for 30 min. Primary antibodies were diluted in 1% normal donkey serum in PBS. […] Images were obtained on a Zeiss Axioplan2 fluorescence microscope equipped with an Axiocam MRm digital camera and Axiovision 4.2 imaging software.
Quantitative analysis of NOS2 positively staining cells was performed as described above. In brief, NOS2 positive containing neurons having large cell bodies were counted in 5 sections having a defined distance (0, 200 and 400 μm rostral and caudal) relative to the level of cortical injection, in brain sections from at least 3 or 4 animals per group. […]

CCN(CCCl)Cc1ccccc1Br [DSP4, N-(2-chloroethyl)-N-ethyl-2-bromobenzylamine]
BACE1, PSEN1, Adam10 mRNA, BACE1 protein, human APP mRNA levels (BACE1, PSEN1, Adam10): did not reveal any significant changes
clinical signs of EAE (EAE mice): appeared sooner and were more severe
reduction of NEP mRNA levels (neprilysin (NEP)): approximately 20%
NOS2 expression in neurons (NOS2): increases NOS2 expression in neurons
